Here are results for one compound from ChEMBL document CHEMBL5729129, “Apoptosis signal-regulating kinase 1 (ASK 1) inhibitor compounds” (2022).

Bounds are passed on as bounds.

Experiment [1] deals with T1, Mitogen-activated protein kinase kinase kinase 5 (Homo sapiens, UniProt Q99683).
T1 sequence (Q99683 whole entry): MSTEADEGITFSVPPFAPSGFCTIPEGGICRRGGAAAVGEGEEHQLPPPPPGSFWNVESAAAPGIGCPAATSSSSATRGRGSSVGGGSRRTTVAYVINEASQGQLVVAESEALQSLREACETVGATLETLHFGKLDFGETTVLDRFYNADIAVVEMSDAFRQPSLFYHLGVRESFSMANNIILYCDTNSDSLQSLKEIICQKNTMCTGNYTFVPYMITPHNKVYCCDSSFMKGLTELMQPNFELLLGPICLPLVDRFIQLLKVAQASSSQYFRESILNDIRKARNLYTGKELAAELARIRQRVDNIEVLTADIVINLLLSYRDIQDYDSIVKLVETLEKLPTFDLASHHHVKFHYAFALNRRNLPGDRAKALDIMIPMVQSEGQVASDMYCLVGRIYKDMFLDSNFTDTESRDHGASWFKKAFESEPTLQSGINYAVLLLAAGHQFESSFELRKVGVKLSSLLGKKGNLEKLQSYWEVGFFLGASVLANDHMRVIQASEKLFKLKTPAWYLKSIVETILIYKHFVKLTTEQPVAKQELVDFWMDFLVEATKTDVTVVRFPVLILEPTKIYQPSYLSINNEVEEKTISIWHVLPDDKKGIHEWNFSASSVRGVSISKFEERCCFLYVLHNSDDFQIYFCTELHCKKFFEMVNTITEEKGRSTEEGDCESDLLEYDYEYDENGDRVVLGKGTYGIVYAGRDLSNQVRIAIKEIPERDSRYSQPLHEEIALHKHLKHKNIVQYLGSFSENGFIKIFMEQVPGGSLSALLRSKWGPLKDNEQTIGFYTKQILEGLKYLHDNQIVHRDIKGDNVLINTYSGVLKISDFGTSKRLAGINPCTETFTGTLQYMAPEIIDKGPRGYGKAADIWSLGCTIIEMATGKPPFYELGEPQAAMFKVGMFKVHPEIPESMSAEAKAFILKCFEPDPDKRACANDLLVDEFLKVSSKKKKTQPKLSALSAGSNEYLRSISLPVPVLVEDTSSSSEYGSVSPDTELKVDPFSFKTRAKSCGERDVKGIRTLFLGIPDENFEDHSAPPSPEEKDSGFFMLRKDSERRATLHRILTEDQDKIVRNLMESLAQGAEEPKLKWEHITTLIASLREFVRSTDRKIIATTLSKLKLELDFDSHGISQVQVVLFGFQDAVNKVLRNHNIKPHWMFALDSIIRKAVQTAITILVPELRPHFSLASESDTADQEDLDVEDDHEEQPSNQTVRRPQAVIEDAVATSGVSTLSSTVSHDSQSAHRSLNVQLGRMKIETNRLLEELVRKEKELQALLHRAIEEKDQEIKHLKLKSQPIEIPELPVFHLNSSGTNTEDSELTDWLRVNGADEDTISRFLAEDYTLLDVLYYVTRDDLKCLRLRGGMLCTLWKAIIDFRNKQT
Put plainly: ADP-Glo Assay: Table 3: The ability of test compounds to inhibit ASK1 kinase activity was determined using the luminescent ADP-Glo™ Kinase Assay and Myelin Basic Protein (MBP) as a substrate (Promega Corporation, Madison, Wis.). During the kinase reaction, ASK1 utilizes ATP and generates ADP. The remaining ATP is then depleted by addition of the ADP-Glo™ reagent which also terminates the reaction. Subsequent addition of the Kinase Detection Reagent converts the ADP that was produced during the kinase reaction to ATP, and this newly synthesized ATP is converted to light using the luciferase/luciferin reactions. The assay was performed according to the manufacturer's instructions. Briefly, purified, recombinant ASK1 (amino acids 649-946) (10-20 ng/well) was added to a 384-well, F bottom, small volume, HIbase, white plate (Greiner Bio-One, Monroe, N.C. #784075) containing 1-2 μL 5× test compound or vehicle control (diluted 1:20 from a 100% DMSO stock solution into 1× Reaction Buffer A). The enzyme was allowed to pre-incubate with test compound from 15-120 min at 30° C. before the addition of the ATP/substrate mix (final concentrations of 50 μM ATP+250 ng MBP in 1× Reaction Buffer A). The mixture was then incubated at room temperature for 40 min before the addition of ADP-Glo™ reagent and a second 40 minute room temperature incubation. […]. (In general: ADP-Glo turns the ADP formed in a reaction into a luminescent signal.)

For the next experiment, the target named is T2, Lysyl oxidase homolog 2 (Homo sapiens, UniProt Q9Y4K0).
T2 sequence (Q9Y4K0 whole entry): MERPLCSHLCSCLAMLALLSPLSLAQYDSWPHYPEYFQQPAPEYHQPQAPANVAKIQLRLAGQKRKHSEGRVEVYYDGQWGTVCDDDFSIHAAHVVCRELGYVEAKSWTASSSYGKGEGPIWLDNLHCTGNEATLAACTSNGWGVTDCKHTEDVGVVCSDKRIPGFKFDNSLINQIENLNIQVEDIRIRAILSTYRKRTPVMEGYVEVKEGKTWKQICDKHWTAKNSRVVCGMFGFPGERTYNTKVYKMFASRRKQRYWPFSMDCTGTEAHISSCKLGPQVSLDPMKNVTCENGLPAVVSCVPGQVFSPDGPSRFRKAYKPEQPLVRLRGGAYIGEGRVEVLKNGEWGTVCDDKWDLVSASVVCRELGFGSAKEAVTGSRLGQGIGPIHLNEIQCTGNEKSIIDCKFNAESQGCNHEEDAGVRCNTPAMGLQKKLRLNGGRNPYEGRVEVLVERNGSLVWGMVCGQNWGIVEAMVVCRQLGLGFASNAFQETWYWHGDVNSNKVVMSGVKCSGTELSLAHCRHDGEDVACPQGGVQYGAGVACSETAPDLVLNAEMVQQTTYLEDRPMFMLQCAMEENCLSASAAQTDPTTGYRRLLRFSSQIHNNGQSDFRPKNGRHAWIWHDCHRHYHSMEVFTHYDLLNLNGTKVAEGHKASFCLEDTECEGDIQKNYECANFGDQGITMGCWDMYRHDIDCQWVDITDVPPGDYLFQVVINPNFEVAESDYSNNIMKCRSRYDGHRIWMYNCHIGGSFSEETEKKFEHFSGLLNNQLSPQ
Put plainly: Amine Oxidase Activity Assay: Table 4: LOXL2 amine oxidase activity was evaluated by measuring Amplex Red fluorescence using 10-20× concentrated conditioned media from CHO cells stably expressing human LOXL2. To assay for amine oxidase activity, 10 μL of the concentrated conditioned media was incubated with 2 μL of test compound in DMSO and 73 μL Assay Buffer (50 mM Borate Buffer, pH8) for 2 h at 37° C. After the 2 h incubation, 5 μL of 10 mM 1,5-Diaminopentane (DAP) diluted in Assay Buffer and 10 μL of Amplex Red Mix (8.5 μL Assay Buffer+0.5 μL of 10 mM Amplex Red+1 μL of 500 U/ml Horseradish Peroxidase) were added and the plate mixed and immediately placed on the FlexStation for fluorescence measurements. Fluorescence was read in kinetic mode every 2 min for 0.5-1 hour at excitation=544 and emission=590. The amine oxidase activity was calculated from the slope of the linear portion of the curve. Wells containing vehicle (DMSO) represented maximum activity and were set to 0% inhibition and wells containing 100 μM βAPN (3-aminopropionitrile) represented no activity and were set to 100% inhibition.

With `NCc1cc(Oc2ccnc(C(=O)Nc3cccc(-c4nncn4C4CC4)c3)c2)nc(C(F)(F)F)c1`, the IC50 was more than 1000 nM in experiment [1] and less than 300 nM at Lysyl oxidase homolog 2.

What is called IC50 is the concentration needed to halve the response being measured.
